Read-outs that look alike come from different tables or passages of the source.
System: HCV 1b-377-neo replicon cells
Experiment: HCV Replicon assay, HCV 1b-377-neo replicon cells
Assay type: cell-based, HCV 1b genotype
Experimental: An HCV Replicon assay was utilized in the present disclosure, and was prepared, conducted and validated as described in commonly owned PCT/US2006/022197 and in O'Boyle et. al. Antimicrob Agents Chemother. 2005 April; 49(4):1346-53.
HCV 1b-377-neo replicon cells were used to test the currently described compound series as well as cells resistant to compound A due to a Y2065H mutation in NS5A (described in application PCT/US2006/022197). The compounds tested were determined to have more than 10-fold less inhibitory activity on cells resistant to compound A than wild-type cells indicating a related mechanism of action between the two compound series. Thus, the compounds of the present disclosure can be effective to inhibit the function of the HCV NS5A protein and are understood to be as effective in combinations as previously described in application PCT/US2006/022197 and commonly owned WO/O4014852. Further, the compounds of the present disclosure can be effective against the HCV 1b genotype. It should also be understood that the compounds of the present disclosure can inhibit multiple genotypes of HCV. […] In one embodiment compounds of the present disclosure are active against the 1a, 1b, 2a, 2b, 3a, 4a, and 5a genotypes.

[1] = Hepatitis C virus, Table 2, read-out: Range (EC50 against HCV 1b)

SMILES	EC50 [1] [nM]	further results
CN(C)[C@@H](C(=O)N1CCC[C@H]1c1nc(-c2ccc(-c3ccc(-c4cn(C)c([C@@H]5CCCN5C(=O)[C@@H](c5ccccc5)N(C)C)n4)cc3)cc2)cn1C)c1ccccc1 (single isomer, unassigned) [Example 151 isomer 1]		EC50 (Table 2, listed as 151 isomer 1, read-out: Range (EC50 against HCV 1b)): 1 to 99 nM
CN(C)[C@@H](C(=O)N1CCC[C@H]1c1nc(-c2ccc(-c3ccc(-c4cn(C)c([C@@H]5CCCN5C(=O)[C@@H](c5ccccc5)N(C)C)n4)cc3)cc2)cn1C)c1ccccc1 (single isomer, unassigned) [Example 151 isomer 2]		EC50 (Table 2, listed as 151 isomer 2, read-out: Range (EC50 against HCV 1b)): 100 to 999 nM
CCN(CC)C(C)C(=O)N1CCC[C@H]1c1nc(C(F)(F)F)c(-c2ccc(-c3ncc(-c4cnc([C@@H]5CCCN5C(=O)[C@@H](C)N(CC)CC)[nH]4)cn3)cc2)[nH]1 (stereo in doubt) [Example J51, (2R)-1-((2S)-2-(5-(4-(5-(2-((2S)-1-((2R)-2-(diethylamino)propanoyl)-2-pyrrolidinyl)-1H-imidazol-5-yl)-2-pyrimidinyl)phenyl)-4-(trifluoromethyl)-1H-imidazol-2-yl)-1-pyrrolidinyl)-N,N-diethyl-1-oxo-2-propanamine]	1 to 99	
CN(C)[C@@H](C(=O)N1CCC[C@H]1c1ncc(-c2ccc(-c3ccc(-c4cnc([C@@H]5CCCN5C(=O)[C@@H](c5ccccc5)N(C)C)[nH]4)cc3)cc2)[nH]1)c1ccccc1 [Example 1, (1R,1′R)-2,2′-(4,4′-biphenyldiylbis(1H-imidazole-5,2-diyl(2S)-2,1-pyrrolidinediyl))bis(N,N-dimethyl-2-oxo-1-phenylethanamine)]	0.001 to 0.999	
CC(C)[C@H](NC(=O)OC(C)(C)C)c1ncc(-c2ccc(-c3ccc(-c4cnc([C@@H](NC(=O)OC(C)(C)C)C(C)C)[nH]4)cc3)cc2)[nH]1 [Example 3]		EC50 (Table 2, read-out: Range (EC50 against HCV 1b)): 0.001 to 0.999 nM
COC(=O)N[C@@H](C(=O)N(C)[C@@H](C)c1ncc(-c2ccc(-c3ccc(-c4cnc([C@H](C)N(C)C(=O)[C@H](NC(=O)OC)c5ccccc5)[nH]4)cc3)cc2)[nH]1)c1ccccc1 [Example 24-18-1, dimethyl (4,4′-biphenyldiylbis (1H-imidazole-5,2-diyl(1S)-1,1-ethanediyl(methyl-imino)((1R)-2-oxo-1-phenyl-2,1-ethanediyl))) biscarbamate]	0.001 to 0.999	
C[C@@H](c1ncc(-c2ccc(-c3ccc(-c4cnc([C@H](C)N(C)C(=O)[C@@H](c5ccccc5)N(C)C)[nH]4)cc3)cc2)[nH]1)N(C)C(=O)[C@@H](c1ccccc1)N(C)C [Example 24-18-2, (2R,2′R)-N,N′-(4,4′-biphenyldiylbis (1H-imidazole-5,2-diyl(1S)-1,1-ethanediyl))bis(2-(dimethylamino)-N-methyl-2-phenylacetamide)]	0.001 to 0.999	
C[C@@H](c1ncc(-c2ccc(-c3ccc(-c4cnc([C@H](C)N(C)C(=O)[C@@H](c5ccccc5)N5CCCCC5)[nH]4)cc3)cc2)[nH]1)N(C)C(=O)[C@@H](c1ccccc1)N1CCCCC1 [Example 24-18-3, (2R,2′R)-N,N′-(4,4′-biphenyldiylbis (1H-imidazol-5,2-diyl(1S)-1,1-ethanediyl))bis(N-methyl-2-phenyl-2-(1-piperidinyl)acetamide)]	0.001 to 0.999	
COC(=O)N[C@@H](C(=O)N(C)[C@@H](C)c1ncc(-c2ccc(-c3ccc(-c4cnc([C@@H]5CCCN5C(=O)[C@H](NC(=O)OC)c5ccccc5)[nH]4)cc3)cc2)[nH]1)c1ccccc1 [Example 24-18-4, methyl ((1R)-2-((2S)-2-(5-(4′-(2-((1S)-1-(((2R)-2-((methoxycarbonyl)amino)-2-phenylacetyl) (methyl)amino)ethyl)-1H-imidazol-5-yl)-4-biphenylyl)-1H-imidazol-2-yl)-1-pyrrolidinyl)-2-oxo-1-phenylethyl) carbamate]	0.001 to 0.999	
C[C@@H](c1ncc(-c2ccc(-c3ccc(-c4cnc([C@@H]5CCCN5C(=O)[C@@H](c5ccccc5)N(C)C)[nH]4)cc3)cc2)[nH]1)N(C)C(=O)[C@@H](c1ccccc1)N(C)C [Example 24-18-5, (2R)-2-(dimethylamino)-N-((1S)-1-(5-(4′-(2-((2S)-1-((2R)-2-(dimethylamino)-2-phenylacetyl)-2-pyrrolidinyl)-1H-imidazol-5-yl)-4-biphenylyl)-1H-imidazol-2-yl)ethyl)-N-methyl-2-phenylacetamide]	0.001 to 0.999	
COC(=O)N[C@@H](C(=O)N1CCC[C@H]1c1ncc(-c2ccc(-c3ccc(-c4cnc([C@@H]5CCCN5C(=O)Cc5ccccc5)[nH]4)cc3)cc2)[nH]1)c1ccccc1 [Example 28, methyl((1R)-2-oxo-1-phenyl-2-((2S)-2-(5-(4′-(2-((2S)-1-(phenylacetyl)-2-pyrrolidinyl)-1H-imidazol-5-yl)-4-biphenylyl)-1H-imidazol-2-yl)-1-pyrrolidinyl)ethyl)carbamate]	1 to 99	
Cc1cc(-c2cnc([C@@H]3CCCN3C(=O)[C@@H](c3ccccc3)N(C)C)[nH]2)ccc1-c1ccc(-c2cnc([C@@H]3CCCN3C(=O)[C@@H](c3ccccc3)N(C)C)[nH]2)cc1C [Example 121, (1R,1′R)-2,2′-((2,2′-dimethyl-4,4′-biphenyldiyl)bis(1H-imidazole-5,2-diyl(2S)-2,1-pyrrolidinediyl))bis(N,N-dimethyl-2-oxo-1-phenylethanamine)]	0.001 to 0.999	
COC(=O)N[C@@H](C(=O)N1CCC[C@H]1c1ncc(-c2ccc(-c3ccc(-c4cnc([C@@H]5CCCN5C(=O)[C@@H](c5ccccc5)N(C)C)[nH]4)cc3C)cc2)[nH]1)c1ccccc1 [Example 126, methyl ((1R)-2-((2S)-2-(5-(4′-(2-((2S)-1-((2R)-2-(dimethylamino)-2-phenylacetyl)-2-pyrrolidinyl)-1H-imidazol-5-yl)-2′-methyl-4-biphenylyl)-1H-imidazol-2-yl)-1-pyrrolidinyl)-2-oxo-1-phenylethyl)carbamate]	0.001 to 0.999	
COC(=O)N[C@@H](C(=O)N1CCC[C@H]1c1ncc(-c2ccc(-c3ccc(-c4cnc([C@@H]5CCCN5C(=O)Cc5cccnc5)[nH]4)cc3C)cc2)[nH]1)c1ccccc1 [Example 127, methyl ((1R)-2-((2S)-2-(5-(2′-methyl-4′-(2-((2S)-1-(3-pyridinylacetyl)-2-pyrrolidinyl)-1H-imidazol-5-yl)-4-biphenylyl)-1H-imidazol-2-yl)-1-pyrrolidinyl)-2-oxo-1-phenylethyl)carbamate]	0.001 to 0.999	
COC(=O)N[C@@H](C(=O)N1CCC[C@H]1c1ncc(-c2ccc(-c3ccc(-c4cnc([C@@H]5CCCN5C(=O)[C@@H]5CCCO5)[nH]4)cc3C)cc2)[nH]1)c1ccccc1 [Example 128, methyl ((1R)-2-((2S)-2-(5-(2′-methyl-4′-(2-((2S)-1-((2S)-tetrahydro-2-furanylcarbonyl)-2-pyrrolidinyl)-1H-imidazol-5-yl)-4-biphenylyl)-1H-imidazol-2-yl)-1-pyrrolidinyl)-2-oxo-1-phenylethyl)carbamate]	0.001 to 0.999	
CN(C)[C@@H](C(=O)N1CCC[C@H]1c1ncc(-c2ccc(-c3ccc(-c4cnc([C@@H]5CCCN5C(=O)[C@@H](c5ccccc5)N(C)C)[nH]4)cc3C(F)(F)F)cc2)[nH]1)c1ccccc1 [Example 130, (1R,1′R)-2,2′-((2-(trifluoromethyl)-4,4′-biphenyldiyl)bis(1H-imidazole-5,2-diyl(2S)-2,1-pyrrolidinediyl))bis(N,N-dimethyl-2-oxo-1-phenylethanamine)]	0.001 to 0.999	
COC(=O)N[C@@H](C(=O)N(C)[C@@H](C)c1ncc(-c2ccc(-c3ccc(-c4cnc([C@@H]5CCCN5C(=O)[C@@H](c5ccccc5)N(C)C)[nH]4)cc3)cc2)[nH]1)c1ccccc1 [Example 131.1-1, methyl((1R)-2-(((1S)-1-(5-(4′-(2-((2S)-1-((2R)-2-(dimethylamino)-2-phenylacetyl)-2-pyrrolidinyl)-1H-imidazol-5-yl)-4-biphenylyl)-1H-imidazol-2-yl)ethyl) (methyl)amino)-2-oxo-1-phenylethyl)carbamate]	0.001 to 0.999	
COC(=O)N[C@@H](C(=O)N(C)[C@@H](C)c1ncc(-c2ccc(-c3ccc(-c4cnc([C@@H]5CCCN5C(=O)[C@@H](c5ccccc5)N5CCCCC5)[nH]4)cc3)cc2)[nH]1)c1ccccc1 [Example 131.1-2, methyl((1R)-2-(methyl((1S)-1-(5-(4′-(2-((2S)-1-((2R)-2-phenyl-2-(1-piperidinyl)acetyl)-2-pyrrolidinyl)-1H-imidazol-5-yl)-4-biphenylyl)-1H-imidazol-2-yl)ethyl)amino)-2-oxo-1-phenylethyl)carbamate]	0.001 to 0.999	
CN(C)[C@@H](C(=O)N1CCC[C@H]1c1ncc(-c2ccc(-c3ccc(-c4cnc([C@@H]5CCCN5C(=O)[C@@H](c5ccccc5)N(C)C)[nH]4)cn3)cc2)[nH]1)c1ccccc1 [Example 132, (1R)-2-((2S)-2-(5-(6-(4-(2-((2S)-1-((2R)-2-(dimethylamino)-2-phenylacetyl)-2-pyrrolidinyl)-1H-imidazol-5-yl)phenyl)-3-pyridinyl)-1H-imidazol-2-yl)-1-pyrrolidinyl)-N,N-dimethyl-2-oxo-1-phenylethanamine]	0.001 to 0.999	
O=C([C@H](O)c1ccccc1)N1CCC[C@H]1c1ncc(-c2ccc(-c3ccc(-c4cnc([C@@H]5CCCN5C(=O)[C@H](O)c5ccccc5)[nH]4)cn3)cc2)[nH]1 [Example 133, (1R)-2-((2S)-2-(5-(6-(4-(2-((2S)-1-((2R)-2-hydroxy-2-phenylacetyl)-2-pyrrolidinyl)-1H-imidazol-5-yl)phenyl)-3-pyridinyl)-1H-imidazol-2-yl)-1-pyrrolidinyl)-2-oxo-1-phenylethanol]	1 to 99	

Reference: US7745636B2, “Hepatitis C virus inhibitors” (Bristol-Myers Squibb Company, priority 2006, dated 2010)
